± gives the expanded uncertainty stated by the source.
assay: Boiling temperature at pressure P; settings: 101.3 kPa; Liquid; Ebulliometric method (Recirculating still)

Structure (SMILES) | Boiling temperature at pressure P [°C]
C=CCO [2-propenol] | 96.8 ± 0.44
CCCCOC(=O)CC [butyl propanoate] | 145.10 ± 0.2
CC(=O)OCC(C)C [2-methylpropyl ethanoate] | 116.60 ± 0.2
CCCCOC(C)=O [butyl ethanoate] | 126.00 ± 0.2

From the NIST ThermoML archive (doi:10.1021/acs.jced.7b01024)
